Test results as given in patent US9718817B2, “Aryl and heteroaryl ether compounds as ROR gamma modulators” (Glenmark Pharmaceuticals S.A., priority 2014, dated 2017).

Target: T1, GST-tagged ROR gamma ligand binding domain (LBD) (Homo sapiens, UniProt P51449)
T1 construct: purchased Invitrogen
T1 sequence (P51449 269-508 limits assumed): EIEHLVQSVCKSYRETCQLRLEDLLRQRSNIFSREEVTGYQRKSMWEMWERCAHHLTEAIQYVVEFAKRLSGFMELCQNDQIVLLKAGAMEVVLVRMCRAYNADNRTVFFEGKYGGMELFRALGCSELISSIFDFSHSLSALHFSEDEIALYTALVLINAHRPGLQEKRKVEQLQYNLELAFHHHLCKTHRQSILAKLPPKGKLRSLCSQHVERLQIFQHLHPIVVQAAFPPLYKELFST
Experiment: TR-FRET assay for ROR gamma (LanthaScreen co-activator peptide recruitment)
Assay type: biochemical
Conditions: for IC50: class symbols, from dose response curve; for inhibition at 1 µM: compound 1 μM; for inhibition at 1 µM / inhibition at 10 µM: TR-FRET ratio 520/495, percent of control; for inhibition at 10 µM: compound 10 μM
Outline: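 Antagonist mode: 10 nM GST-RORγ LBD pre-incubated with compound 1 h at 22 °C in 25 mM HEPES pH 7.4, 100 mM NaCl, 5 mM DTT, 0.01% BSA, 4% DMSO final. Then 300 nM fluorescein-D22 co-activator peptide plus 10 nM Tb-anti-GST added, 1 h at room temperature. IC50 by nonlinear regression of the 520/495 TR-FRET ratio as percent of no-compound control.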

SMILES | IC50 [nM] | inhibition at 1 µM [%] | inhibition at 10 µM [%]
CCS(=O)(=O)c1ccc(CC(=O)Nc2ccc(C#CC(C)(C)Oc3c(F)cc(F)cc3F)cc2)cc1 [Example 73, 2-(4-Ethanesulfonyl-phenyl)-N-{4-[3-methyl-3-(2,4,6-trifluoro-phenoxy)-but-1-yn-1-yl]-phenyl}-acetamide] | < 50 | 75.4 | 78.6
CCS(=O)(=O)c1ccc(CC(=O)Nc2cc(F)c(OC(C)(C)c3ccc(Cl)cc3Cl)c(F)c2)cc1 [Example 109, N-{4-[1-(2,4-Dichloro-phenyl)-1-methyl-ethoxy]-3,5-difluoro-phenyl}-2-(4-ethanesulfonyl-phenyl)-acetamide] | – | 16.6 | 17.2
CCS(=O)(=O)c1ccc(CC(=O)Nc2ccc(OC(C)(C)c3ccc(Cl)cc3Cl)c(F)c2)cc1 [Example 96, N-{4-[1-(2,4-Dichloro-phenyl)-1-methyl-ethoxy]-3-fluoro-phenyl}-2-(4-ethanesulfonyl-phenyl)-acetamide] | < 50 | 79.3 | 79.8
CCn1c(C(C)(C)Oc2ccc(NC(=O)Cc3ccc(S(=O)(=O)CC)cc3)cc2)nc2ccc(F)cc21 [Example 14, N-(4-{[2-(1-ethyl-6-fluoro-1H-benzimidazol-2-yl)propan-2-yl]oxy}phenyl)-2-[4-(ethylsulfonyl)phenyl]acetamide] | < 50 | 88.9 | 93.3
CCS(=O)(=O)c1ccc(CC(=O)Nc2ccc(OC3(c4ccc(Cl)cc4)CCC3)cc2)cc1 [Example 31, N-{4-[1-(4-Chloro-phenyl)-cyclobutoxy]-phenyl}-2-(4-ethanesulfonyl-phenyl)-acetamide] | 50 to 100 | 81.9 | 89.1
CCS(=O)(=O)c1ccc(CC(=O)Nc2ccc3c(c2)nc(C(C)(C)Oc2ccc(F)cc2F)n3C(C)C)cc1 [Example 117, N-{2-[1-(2,4-Difluoro-phenoxy)-1-methyl-ethyl]-1-isopropyl-1H-benzoimidazol-5-yl}-2-(4-ethanesulfonyl-phenyl)-acetamide] | > 100 | 82.7 | 86.7
CCN(C(=O)C(C)(C)Oc1ccc(NC(=O)Cc2ccc(S(=O)(=O)CC)cc2)cc1)c1ccc(Cl)cc1Cl [Example 129, N-(2,4-Dichlorophenyl)-N-ethyl-2-(4-(2-(4-(ethylsulfonyl)phenyl)acetamido)phenoxy)-2-methylpropanamide] | – | 2.49 | 8.35
CCS(=O)(=O)c1ccc(CC(=O)Nc2ccc3c(c2)nc(C(C)(C)Oc2ccc(F)cc2F)n3CCN(C)C)cc1 [Example 113, N-[2-[1-(2,4-Difluoro-phenoxy)-1-methyl-ethyl]-1-(2-dimethylamino-ethyl)-1H-benzoimidazol-5-yl]-2-(4-ethanesulfonyl-phenyl)-acetamide] | – | 15.6 | 52.4
CCS(=O)(=O)c1ccc(CC(=O)Nc2ccc(OC(C)(C)c3ncc(Cl)cc3Cl)cc2)cc1 [Example 11, N-{4-[1-(3,5-Dichloro-pyridin-2-yl)-1-methyl-ethoxy]-phenyl}-2-(4-ethanesulfonyl-phenyl)-acetamide] | < 50 | 84.3 | 89
CCS(=O)(=O)c1ccc(CC(=O)Nc2ccc(OC3(c4ccc(F)c(F)c4)CCOCC3)cc2)cc1 [Example 35, N-{4-[4-(3,4-Difluoro-phenyl)-tetrahydro-pyran-4-yloxy]-phenyl}-2-(4-ethanesulfonyl-phenyl)-acetamide] | 50 to 100 | 79.5 | 86.7
CCS(=O)(=O)c1ccc(CC(=O)Nc2ccc(OC3(c4ccc(Cl)c(F)c4)CCCC3)c(F)c2)cc1 [Example 121, N-{4-[1-(4-Chloro-3-fluorophenyl)-cyclopentyloxy]-3-fluorophenyl}-2-(4-ethanesulfonyl-phenyl)-acetamide] | < 50 | 86.8 | 90.2
CCS(=O)(=O)c1ccc(CC(=O)Nc2ccc(OC(C)(C)c3ccc(F)cc3Cl)nc2)cc1 [Example 57, N-{6-[1-(2-Chloro-4-fluoro-phenyl)-1-methyl-ethoxy]-pyridin-3-yl}-2-(4-ethanesulfonyl-phenyl)-acetamide] | 50 to 100 | 78 | 91.3
CCS(=O)(=O)c1ccc(CC(=O)Nc2ccc(OC3(c4ccc(Cl)cc4Cl)CCC3)c(F)c2)cc1 [Example 139, N-(4-((1-(2,4-Dichlorophenyl)cyclobutyl)oxy)-3-fluorophenyl)-2-(4-(ethylsulfonyl)phenyl)acetamide] | < 50 | 86.3 | 82.6
CCS(=O)(=O)c1ccc(CC(=O)Nc2ccc(OC3(c4ccc(F)c(C(F)(F)F)c4)CCOCC3)cc2)cc1 [Example 42, 2-(4-Ethanesulfonyl-phenyl)-N-{4-[4-(4-fluoro-3-trifluoromethyl-phenyl)-tetrahydro-pyran-4-yloxy]-phenyl}-acetamide] | – | 65.9 | 86
CCn1c(C(C)(C)Oc2ccc(Cl)cn2)nc2cc(NC(=O)Cc3ccc(S(=O)(=O)CC)cc3)ccc21 [Example 94, N-{2-[1-(5-Chloro-pyridin-2-yloxy)-1-methyl-ethyl]-1-ethyl-1H-benzoimidazol-5-yl}-2-(4-ethanesulfonyl-phenyl)-acetamide] | > 100 | 78 | 90.1
CCS(=O)(=O)c1ccc(CC(=O)Nc2ccc3c(c2)nc(C(C)(C)Oc2ccc(F)cc2F)n3CC2CC2)cc1 [Example 114, N-{1-Cyclopropylmethyl-2-[1-(2,4-difluoro-phenoxy)-1-methyl-ethyl]-1H-benzoimidazol-5-yl}-2-(4-ethanesulfonyl-phenyl)-acetamide] | < 50 | 78.9 | 82.6
CCn1c(C(C)(C)Oc2ccc(Cl)cc2)nc2cc(NC(=O)Cc3ccc(S(=O)(=O)CC)cc3)ccc21 [Example 93, N-{2-[1-(4-Chloro-phenoxy)-1-methyl-ethyl]-1-ethyl-1H-benzoimidazol-5-yl}-2-(4-ethanesulfonyl-phenyl)-acetamide] | < 50 | 83.4 | 87.4
CCS(=O)(=O)c1ccc(CC(=O)Nc2ccc(C#CC(C)(C)Oc3ccc(OC(F)(F)F)cc3)cc2)cc1 [Example 77, 2-(4-Ethanesulfonyl-phenyl)-N-{4-[3-methyl-3-(4-trifluoromethoxy-phenoxy)-but-1-yn-1-yl]-phenyl}-acetamide] | < 50 | 82.8 | 87.1
CCS(=O)(=O)c1ccc(CC(=O)Nc2ccc(OC3(c4ccc(Cl)cc4Cl)CCOCC3)cc2)cc1 [Example 40, N-{4-[4-(2,4-Dichloro-phenyl)-tetrahydro-pyran-4-yloxy]-phenyl}-2-(4-ethanesulfonyl-phenyl)-acetamide] | < 50 | 77.4 | 81.9
CCS(=O)(=O)c1ccc(CC(=O)Nc2ccc(OC(C)(C)c3ccc(Cl)cc3Cl)nc2)cc1 [Example 58, N-(6-{[2-(2,4-Dichlorophenyl)propan-2-yl]oxy}pyridin-3-yl)-2-[4-(ethylsulfonyl)phenyl]acetamide] | < 50 | 83.7 | 86.7
CCS(=O)(=O)c1ccc(CC(=O)Nc2ccc(OC3(c4ccc(Cl)c(F)c4)CCC3)nc2)cc1 [Example 54, N-{6-[1-(4-Chloro-3-fluoro-phenyl)-cyclobutoxy]-pyridin-3-yl}-2-(4-ethanesulfonyl-phenyl)-acetamide] | < 50 | 92 | 93.7
CCS(=O)(=O)c1ccc(CC(=O)Nc2ccc(OC3(c4ccc(Cl)c(F)c4)CCN(C)CC3)cc2)cc1 [Example 44, N-{4-[4-(4-Chloro-3-fluoro-phenyl)-1-methyl-piperidin-4-yloxy]-phenyl}-2-(4-ethanesulfonyl-phenyl)-acetamide] | – | 44.6 | 70
CCn1c(C(F)(F)Oc2ccc(F)cc2F)nc2cc(NC(=O)Cc3ccc(S(=O)(=O)CC)cc3)ccc21 [Example 118, N-{2-[(2,4-Difluoro-phenoxy)-difluoromethyl]-1-ethyl-1H-benzoimidazol-5-yl}-2-(4-ethanesulfonyl-phenyl)-acetamide] | – | 5.43 | 9.14
CCS(=O)(=O)c1ccc(CC(=O)Nc2ccc(OC3(c4ccc(Cl)c(Cl)c4)CCOCC3)cc2)cc1 [Example 39, N-{4-[4-(3,4-Dichloro-phenyl)-tetrahydro-pyran-4-yloxy]-phenyl}-2-(4-ethanesulfonyl-phenyl)-acetamide] | 50 to 100 | 87.7 | 94.8
CCS(=O)(=O)c1ccc(CC(=O)Nc2ccc(OC3(c4ccc(Cl)c(F)c4)CCOCC3)cc2)cc1 [Example 38, N-{4-[4-(4-Chloro-3-fluoro-phenyl)-tetrahydro-pyran-4-yloxy]-phenyl}-2-(4-ethanesulfonyl-phenyl)-acetamide] | < 50 | 85.8 | 87.8
CCn1c(C(C)(C)Oc2ccc(NC(=O)Cc3ccc(S(=O)(=O)CC)cc3)cc2F)nc2cc(Cl)ccc21 [Example 105, N-{4-[1-(5-Chloro-1-ethyl-1H-benzoimidazol-2-yl)-1-methyl-ethoxy]-3-fluoro-phenyl}-2-(4-ethanesulfonyl-phenyl)-acetamide] | < 50 | 83.6 | 84.6
